Assay results as given in US20220331303A1, “USE OF AN OREXIN 2 RECEPTOR AGONIST FOR THE TREATMENT OF EXCESSIVE SLEEPINESS” (Takeda Pharmaceutical Company Limited, priority 2019, published 2022).
“Also recorded” adds a separate entry of the source.

What was measured:
[1] = system: sleep-deprived healthy volunteers; test: Safety/tolerability of a single dose in sleep-deprived healthy adults; format: in vivo, human
Description: (§1) During the day before dosing on Day 1, participants were administered the KSS at scheduled timepoints. A practice MWT session was performed on Day 1 treatment period 1 (only once during the entire study) to familiarize subjects with the procedures. Study drug was administered in the clinic in the evening on Day 1 of each treatment period. Subjects underwent the MWT and KSS at specified timepoints after the start of the infusion. Subjects were required to stay awake between the MWT tests. Following completion of the IV infusion on Day 2, subjects underwent an additional MWT test. When the final MWT test and cognitive testing were completed, subjects were allowed to sleep (recovery sleep) for approximately 6 hours. PSG recording was collected during this time. Subjects were discharged from the unit after completion on Day 2 with continuing actigraphy upon discharge (to begin on Day −6 before the next treatment period). The interval between each subsequent treatment period was at least 7 days to ensure that the subject's circadian rhythm had returned to a normal cycle. Subject's vital signs, including BP, were monitored during the dosing and testing period. Blood samples for determination of Compound A plasma concentrations were collected at specified timepoints on Days 1 and 2 of each treatment period. Subjects completed the Columbia-Suicide Severity Rating Scale (C-SSRS) during screening, before study drug administration, and before discharge on Day 2 of each treatment period.
Safety endpoints: adverse events (AEs), physical examinations, vital signs, 12-lead electrocardiograms (ECGs), clinical laboratory evaluations (hematology, blood chemistry, and urinalysis), drug-liking visual analogue scale, and Profile of Mood States.

[2] = system: sleep-deprived healthy volunteers; test: Karolinska Sleepiness Scale (KSS) in sleep-deprived healthy volunteers; format: in vivo, human
Description: as §1
Secondary endpoints: • PK parameters calculated from plasma concentrations of Compound A. • Scores for sleepiness on the Karolinska Sleepiness Scale (KSS).
The secondary efficacy endpoint was sleepiness/alertness as assessed by KSS at 14, 10, 6, and 2 hours predose (approximately between 7:45 AM to 7:45 PM); 2, 2.75, 4.75, 6.75, and 8.75 hours post infusion start (approximately between mid-night to 7 AM in the morning); and at 1.75 hours post infusion end. A higher value indicates more sleepiness, a lower value indicates more alertness. Prior to infusion, there were no statistically significant differences at any time point of observation in KSS score for Compound A 44 and 112 mg treatments when compared to placebo. […] On the average, for modafinil and Compound A 44 and 112 mg, there were about 1.6 to 3.7 points increase in the KSS postdose/the infusion start, relative to that prior to dosing during the daytime. However, for placebo, the increase in the average KSS is 4.9.

[3] = Compound A 44 mg, 1.75 HOURS POST INFUSION END
[4] = Compound A 44 mg, 2 HOURS PREDOSE
[5] = Compound A 44 mg, 2.75 HOURS POST INFUSION START
[6] = Compound A 44 mg, 4.75 HOURS POST INFUSION START
[7] = Compound A 44 mg, 6 HOURS PREDOSE
[8] = Compound A 44 mg, 6.75 HOURS POST INFUSION START
[9] = Compound A 44 mg, 8.75 HOURS POST INFUSION START
[10] = Compound A 44 mg, 10 HOURS PREDOSE
[11] = Compound A 44 mg, 14 HOURS PREDOSE
[12] = Compound A 112 mg, 1.75 HOURS POST INFUSION END
[13] = Compound A 112 mg, 2 HOURS PREDOSE
[14] = Compound A 112 mg, 2.75 HOURS POST INFUSION START
[15] = Compound A 112 mg, 4.75 HOURS POST INFUSION START
[16] = Compound A 112 mg, 6 HOURS PREDOSE

COC(=O)N1CCC[C@H](NS(C)(=O)=O)[C@@H]1CO[C@H]1CC[C@@H](c2ccccc2)CC1 [Compound A, methyl (2R,3S)-3-((methylsulfonyl)amino)-2-(((cis-4-phenylcyclohexyl)oxy)methyl)piperidine-1-carboxylate]
Effect on BP and pulse ([1]; Compound A 44 mg): minimal effect
Drug-related TEAE of liver function test increased, number of subjects ([1]; Compound A 112 mg, mild intensity): 1 subject
Serious adverse events (SAEs) ([1]; Compound A 44 and 112 mg treatments): no SAEs were observed
Changes in DBP versus Compound A plasma concentration ([1]; change from time-matched baseline): appeared to increase with increasing concentration
Tolerability ([1]; single dose 44 mg or 112 mg, slow infusion over 9 hours, healthy volunteers): well-tolerated with no major safety concerns; also recorded: well tolerated overall
Difference between average KSS score post and prior to infusion start, LS Mean (SE) ([2]; Compound A 44 mg): 3.68 (0.332)
KSS Max [2, 3]: 9
KSS Mean (SD) [2, 3]: 8.4 (0.86)
KSS Median [2, 3]: 9.0
KSS Min [2, 3]: 6
KSS Max [2, 4]: 9
KSS Mean (SD) [2, 4]: 4.0 (2.30)
KSS Median [2, 4]: 3.5
KSS Min [2, 4]: 1
KSS Max [2, 5]: 8
KSS Mean (SD) [2, 5]: 4.8 (1.92)
KSS Median [2, 5]: 4.5
KSS Min [2, 5]: 1
KSS Max [2, 6]: 9
KSS Mean (SD) [2, 6]: 6.4 (2.12)
KSS Median [2, 6]: 6.5
KSS Min [2, 6]: 2
KSS Max [2, 7]: 7
KSS Mean (SD) [2, 7]: 2.8 (1.59)
KSS Median [2, 7]: 2.5
KSS Min [2, 7]: 1
KSS Max [2, 8]: 9
KSS Mean (SD) [2, 8]: 7.8 (0.94)
KSS Median [2, 8]: 8.0
KSS Min [2, 8]: 6
KSS Max [2, 9]: 9
KSS Mean (SD) [2, 9]: 8.1 (1.00)
KSS Median [2, 9]: 8.0
KSS Min [2, 9]: 5
KSS Max [2, 10]: 7
KSS Mean (SD) [2, 10]: 2.8 (1.40)
KSS Median [2, 10]: 3.0
KSS Min [2, 10]: 1
KSS Max [2, 11]: 6
KSS Mean (SD) [2, 11]: 2.8 (1.15)
KSS Median [2, 11]: 3.0
KSS Min [2, 11]: 1
Difference between average KSS score post and prior to infusion start, LS Mean (SE) ([2]; Compound A 112 mg): 1.64 (0.332)
KSS Max [2, 12]: 9
KSS Mean (SD) [2, 12]: 8.0 (1.57)
KSS Median [2, 12]: 8.5
KSS Min [2, 12]: 3
KSS Max [2, 13]: 6
KSS Mean (SD) [2, 13]: 3.4 (1.76)
KSS Median [2, 13]: 3.0
KSS Min [2, 13]: 1
KSS Max [2, 14]: 8
KSS Mean (SD) [2, 14]: 3.2 (2.02)
KSS Median [2, 14]: 2.0
KSS Min [2, 14]: 1
KSS Max [2, 15]: 9
KSS Mean (SD) [2, 15]: 3.8 (1.82)
KSS Median [2, 15]: 3.0
KSS Min [2, 15]: 1
KSS Max [2, 16]: 4
KSS Mean (SD) [2, 16]: 2.5 (0.92)
